Here are results for one compound from patent publication US11059844B2, “Immune stimulating macrolides” (ISR IMMUNE SYSTEM REGULATION HOLDING AB (PUBL), priority 2017, dated 2021).

Molecules are shown by their SMILES. A value given as a limit tells only on which side of the number the result lay.

Experiment [1] concerns PBMCs. The experiment is described as follows: Supernatant IL-10 sandwich ELISA. Type of experiment: cell-based, Human. The conditions noted are these: […] with 100 U/mL IL-2, 48 h and 7 days. Here is the method:
Supernatant IL-10 was measured with a standard sandwich ELISA (all antibodies from BD Biosciences) after 48 hours and 7 days incubation with 2.5 μM of compound 1 and 100 U/mL IL-2 (Miltenyi Biotechnologies) in complete RPMI media, 37° C., 5% CO2
Supernatant IL-10 was measured with a standard sandwich ELISA (all antibodies from BD Biosciences) after 48 hours and 7 days incubation with 2.5 uM of compound 1 and 100 U/mL IL-2 (Miltenyi Biotechnologies) in complete RPMI media, 37° C., 5% CO2.
This indicate an immune inhibitory effect under certain conditions (FIG. 5).
For orientation: In an ELISA, binding on a coated surface is turned into a signal by an enzyme label.

Experiment [2] concerns PBMCs. Put plainly: Cytokine/chemokine secretion from PBMCs (cytometric bead assay). It counts as cell-based, Human. Particulars: 2 days. Here is the method:
FIG. 11: Chemokine RANTES secretion (as measured by cytometric bead assay) from PBMC or macrophages stimulated with indicated compound for 48 h.
FIG. 12: IL12p70 secretion (as measured by cytometric bead assay) from PBMC or macrophages stimulated with indicated compound for 48 h.
FIG. 13: IL1b secretion (as measured by cytometric bead assay) from PBMC, macrophages or CD4 T cells stimulated with indicated compound for 48 h.
Study 10: PBMCs and macrophages where exposed to compounds 1 or 2 for 2 days (FIG. 11).
Study 11: PBMCs and macrophages where exposed to compounds 1 and 2 for 2 days.
Study 12: PBMCs, macrophages and CD4+ T cells where exposed to compounds 1 and 2 for 2 days.

Experiment [3] concerns Monocytes differentiated into macrophages. The experiment is described as follows: CD80 expression on monocytes differentiated into macrophages. Type of experiment: cell-based, Human. Particulars: 24 h. How it is done: Human peripheral blood mononuclear cells (PBMCs) were purified from healthy donors with Ficoll-Paque density centrifugation. Cells were cultured in complete RPMI-1640 media (Invitrogen) supplemented with 25 mM HEPES, L-glutamine, Sodium pyruvate (Sigma), 10% fetal bovine serum, 100 μg/mL penicillin and 100 μg/mL streptomycin (Hyclone) for 24-72 hours in 37° C., 5% CO2 and stimulated with and increasing concentrations of compound 1 and 2. Cells were then washed in PBS and stained with monoclonal antibodies specific for cell surface markers (BD Pharmingen) and analysed with flow cytomtetry using a BD FACS Canto II flow cytometer. All samples were tested in duplicates.
Human peripheral blood mononuclear cells (PBMCs) were purified from healthy donors with Ficoll-Paque density centrifugation. Cells were cultured in complete RPMI-1640 medium (Invitrogen) supplemented with 25 mM HEPES, L-glutamine, Sodium pyruvate (Sigma), 10% fetal bovine serum, 100 μg/mL penicillin and 100 μg/mL streptomycin (Hyclone). […] The cells were removed from the plate, washed in PBS and analysed for expression of cell specific surface markers and MHC class I with flow cytomtery using monoclonal antibodies from BD Pharmingen and a FACS Canto II flow cytometer.

Experiment [4] relates to Bifidobacterium longum subsp. infantis. The experiment is described as follows: Minimum Inhibitory Concentration (MIC) assay. Particulars: anaerobic, 37° C., 18 h. It counts as cell-based. Here is the method:
(§1) The bioactivity of macrolide compounds against 4 strains of common gut bacteria (Escherichia coli, Streptococcus salivarius subsp. salivarius, Lactobacillus casei and Bifidobacterium longum subsp. infantis) and common mammalian skin isolate Micrococcus luteus, was assessed using the Minimum Inhibitory Concentration (MIC) assay. Bacterial strains were purchased from DSMZ (Brunswick, Germany) except M. luteus which was obtained from NCIMB, and stored in 20% glycerol at −80° C. Stock solutions (100% DMSO) of positive controls (azithromycin and erythromycin), and of test compounds 1 and 2 were diluted in broth to working stock concentrations of 256 μg/ml (final assay testing concentration range 128 μg/ml to 0.00391 μg/ml). Stock solutions of all other compounds were diluted in broth to working stock concentrations of 128 μg/ml (final assay testing concentration range 64 μg/ml to 0.00195 μg/ml). Bacterial strains were cultivated in appropriate broth in an anaerobic chamber at 37° C., except for M. luteus which was incubated aerobically at 37° C. 18 h cultures were diluted in broth to an OD595 of 0.1 and then further diluted 1:10. In 96-well plates, in duplicate, 200 μl working stock of test compound was transferred to well 1 and serially diluted (1:2) in broth. 100 μl bacterial suspension was aliquoted into each well and mixed thoroughly. Appropriate sterility controls were included and plates were incubated in an anaerobic chamber, or aerobically (M. luteus) at 37° C. for 18 h. The MIC was determined to be the concentration of test compound in the first well with no visible growth.

Experiment [5] concerns Streptococcus salivarius subsp. salivarius. Put plainly: Minimum Inhibitory Concentration (MIC) assay. Particulars: anaerobic, 37° C., 18 h. Type of experiment: cell-based. How it is done:
as §1

In a further experiment the test system is Micrococcus luteus. The experiment is described as follows: Minimum Inhibitory Concentration (MIC) assay. It counts as cell-based. Particulars: aerobic, 37° C., 18 h. Here is the method:
as §1

A further experiment has as its system Lactobacillus casei. Put plainly: Minimum Inhibitory Concentration (MIC) assay. It counts as cell-based. Particulars: Lacticaseibacillus casei; anaerobic, 37° C., 18 h. Here is the method: as §1
A further experiment concerns Escherichia coli. Put plainly: Minimum Inhibitory Concentration (MIC) assay. It counts as cell-based. Particulars: anaerobic, 37° C., 18 h. Here is the method: as §1
A further experiment deals with CD11b+ splenocytes. Put plainly: MHC class I expression on CD11b+ splenocytes of mice after i.v. dosing. It counts as in vivo, C57bl/6 mice. Particulars: spleen removed 24 h later. How it is done:
FIG. 15: % MHC class I high CD11 b+ cells in spleen of 3 individual C57bl/6 mice injected 24 h previously with indicated compound. MHC class I and CD11b expression was measured by flow cytometry.
Study 14: Compound 1 or 2 was administered i.v. to C57bl/6 mice.

Experiment [6] has as its system E. coli, S. salivarius, L. casei, B. longum or M. luteus. Put plainly: Direct antibacterial activity, summary over all strains tested. Type of experiment: cell-based. The conditions noted are these: summary in words of Table 1. How it is done: as §1

Regarding `CC[C@H]1OC(=O)[C@H](C)[C@@H](O[C@H]2C[C@@H](N(C)C)[C@H](O)[C@@H](C)O2)[C@H](C)[C@@H](O)[C@](C)(O)C[C@@H](C)CN(C)[C@H](C)[C@@H](O)[C@]1(C)O` [Compound 1], in the experiment with PBMCs [1], the “production of IL-10” value is on record as “increased production”. In addition, in the experiment on PBMCs [2], the “IL-1beta secretion, PBMCs” value was “slightly”. Moreover, the “IL-12p70 secretion, PBMCs” value in the experiment on PBMCs [2] is “secreted IL-12p70”. Also, the “RANTES expression, PBMCs” value with PBMCs [2] is reported as “twofold upregulation”. Also, in [3], the CD80 on macrophages entry is on record as “upregulated”. The MIC (usually the lowest concentration that inhibits growth of the organism) is more than 64 µg/mL in experiment [4]; more than 64 µg/mL in experiment [5]; more than 256 µg/mL in the experiment with Micrococcus luteus; more than 64 µg/mL with Lactobacillus casei; more than 64 µg/mL in the experiment on Escherichia coli. For the same compound, in the experiment with CD11b+ splenocytes, the “splenocyte cells with high MHC I expression (CD11b+)” value is “induced an increase”. Besides, the “antibacterial activity against the bacterial strains tested” value in experiment [6] is “no antibacterial activity”.
